Assays:
Assay in all cases: Paper disk method, enhancing action for activities of azole antifungal agents
Type in all cases: cell-based
[1] = test system: Candida albicans ATCC 64548; settings: 24 hours; for Inhibition activity (inhibition ring mm) C. albicans ATCC 64548 GYM / Transparency of the inhibition ring C. albicans ATCC 64548 GYM: miconazole 0.03 μg/ml; for Inhibition activity (inhibition ring mm) C. albicans ATCC 64548 GYF / Transparency of the inhibition ring C. albicans ATCC 64548 GYF: fluconazole 0.5 μg/ml
Procedure: (§1) Test organisms used were Candida albicans ATCC 64548, fluconazole resistant Candida albicans ATCC 64550 and Aspergillus niger ATCC 6275. Candida spp. were cultured in Waksman broth (glucose 2.0%, peptone 0.5%, dry yeast 0.3%, meat extract 0.5%, NaCl 0.5% and CaCO3 0.3%, pH 7.0) at 27° C. for 40 hours, then 0.1% thereof was inoculated on GY agar medium (glucose 1.0%, yeast extract 0.5% and agar 0.8%, pH 6.0). Spore suspension 0.2% of Aspergillus niger ATCC 6275 was inoculated on GY agar medium.
(§2) Azole antifungal agents used were miconazole (Sigma Inc., the U.S.) and fluconazole (ICN Pharmaceuticals, Inc., the U.S.), and were added at concentrations without affecting growth on each test organisms follows.
Candida albicans ATCC 64548: miconazole 0.03 μg/ml or fluconazole 0.5 μg/ml.
(§3) In the above medium, a medium added with miconazole to GY medium (control) is designated as GYM, and a medium added with fluconazole is designated as GYF. Activities were assessed by means of paper disk method (thickness: 8 mm, ADVANTEC MFS INC., Japan). Diameter of inhibition ring is expressed with mm unit after culturing Candida spp. for 24 hours and Aspergillus niger ATCC 6275 for 48 hours. Transparency of the inhibition ring is assessed with 5 degrees of A, B, C, D and E (transparence<A<B<C<D<E<opaque).

[2] = test system: fluconazole resistant Candida albicans ATCC 64550; settings: 24 hours; for Inhibition activity (inhibition ring mm) C. albicans ATCC 64550 GYF / Transparency of the inhibition ring C. albicans ATCC 64550 GYF: fluconazole 30 μg/ml; for Inhibition activity (inhibition ring mm) C. albicans ATCC 64550 GYM / Transparency of the inhibition ring C. albicans ATCC 64550 GYM: miconazole 0.15 μg/ml
Procedure: as §1, §2
Candida albicans ATCC 64550: miconazole 0.15 μg/ml or fluconazole 30 μg/ml.
as §3

[3] = test system: Aspergillus niger ATCC 6275; settings: 48 hours; for Inhibition activity (inhibition ring mm) A. niger ATCC 6275 GYF / Transparency of the inhibition ring A. niger ATCC 6275 GYF: fluconazole 10 μg/ml; for Inhibition activity (inhibition ring mm) A. niger ATCC 6275 GYM / Transparency of the inhibition ring A. niger ATCC 6275 GYM: miconazole 0.1 μg/ml; for Inhibition activity (inhibition ring mm) A. niger ATCC 6275 GY / Transparency of the inhibition ring A. niger ATCC 6275 GY: GY medium (control, no azole)
Procedure: as §1, §2
Aspergillus niger ATCC 6275: miconazole 0.1 μg/ml or fluconazole 10 μg/ml.
as §3

SMILES | Inhibition activity (inhibition ring mm) C. albicans ATCC 64548 GYM ([1]; 10 μg/8 mm disk) [mm] | Transparency of the inhibition ring C. albicans ATCC 64548 GYM ([1]; 10 μg/8 mm disk) | Inhibition activity (inhibition ring mm) C. albicans ATCC 64548 GYM ([1]; 50 μg/8 mm disk) [mm] | Transparency of the inhibition ring C. albicans ATCC 64548 GYM ([1]; 50 μg/8 mm disk) | Inhibition activity (inhibition ring mm) C. albicans ATCC 64550 GYF ([2]; 50 μg/8 mm disk) [mm] | Transparency of the inhibition ring C. albicans ATCC 64550 GYF ([2]; 50 μg/8 mm disk) | Inhibition activity (inhibition ring mm) C. albicans ATCC 64550 GYM ([2]; 50 μg/8 mm disk) [mm] | Transparency of the inhibition ring C. albicans ATCC 64550 GYM ([2]; 50 μg/8 mm disk) | Inhibition activity (inhibition ring mm) A. niger ATCC 6275 GYF ([3]; 10 μg/8 mm disk) [mm] | Transparency of the inhibition ring A. niger ATCC 6275 GYF ([3]; 10 μg/8 mm disk) | Inhibition activity (inhibition ring mm) A. niger ATCC 6275 GY ([3]; 50 μg/8 mm disk) [mm] | Transparency of the inhibition ring A. niger ATCC 6275 GY ([3]; 50 μg/8 mm disk) | Inhibition activity (inhibition ring mm) A. niger ATCC 6275 GYF ([3]; 50 μg/8 mm disk) [mm] | Transparency of the inhibition ring A. niger ATCC 6275 GYF ([3]; 50 μg/8 mm disk) | Inhibition activity (inhibition ring mm) A. niger ATCC 6275 GYM ([3]; 50 μg/8 mm disk) [mm] | Transparency of the inhibition ring A. niger ATCC 6275 GYM ([3]; 50 μg/8 mm disk) | Inhibition activity (inhibition ring mm) C. albicans ATCC 64548 GYM ([1]; 100 μg/8 mm disk) [mm] | Transparency of the inhibition ring C. albicans ATCC 64548 GYM ([1]; 100 μg/8 mm disk) | Inhibition activity (inhibition ring mm) C. albicans ATCC 64550 GYM ([2]; 100 μg/8 mm disk) [mm] | Transparency of the inhibition ring C. albicans ATCC 64550 GYM ([2]; 100 μg/8 mm disk) | also measured
CCC(OC(=O)c1ccccc1)C(C)(O)C1OC(=O)C(C)C(OC2CC(C)(OC)C(OC(=O)c3ccccc3)C(C)O2)C(C)C(OC2OC(C)CC(N(C)C)C2O)C2(C)CC(C)=C(O2)C1C (centres unmarked) [Compound 778, 4″,13-Di-O-benzoyl-8,9-Anhydro-pseudo-erythromycin A 6,9-hemiketal] | 12 | B (Growth of test organism was inhibited 75% of more and 95% or less.) | 16 | A (Growth of test organism was inhibited 95% or more.) | 13 | B (Growth of test organism was inhibited 75% of more and 95% or less.) | 14 | B (Growth of test organism was inhibited 75% of more and 95% or less.) | 12 | E (Growth of test organism was inhibited 35% or less.) | 10 | E (Growth of test organism was inhibited 35% or less.) | 13 | D (Growth of test organism was inhibited 35% or more and 55% or less.) | 16 | A (Growth of test organism was inhibited 95% or more.) | – | – | – | – | Inhibition activity (inhibition ring mm) C. albicans ATCC 64548 GYF ([1]; 50 μg/8 mm disk): 9 mm; Transparency of the inhibition ring C. albicans ATCC 64548 GYF ([1]; 50 μg/8 mm disk): D (Growth of test organism was inhibited 35% or more and 55% or less.); Inhibition activity (inhibition ring mm) C. albicans ATCC 64550 GYF ([2]; 10 μg/8 mm disk): 10 mm; Transparency of the inhibition ring C. albicans ATCC 64550 GYF ([2]; 10 μg/8 mm disk): E (Growth of test organism was inhibited 35% or less.); Inhibition activity (inhibition ring mm) A. niger ATCC 6275 GYM ([3]; 10 μg/8 mm disk): 14 mm; Transparency of the inhibition ring A. niger ATCC 6275 GYM ([3]; 10 μg/8 mm disk): E (Growth of test organism was inhibited 35% or less.)
CCC(OC(=O)c1ccccc1)C(C)(O)C1OC(=O)C(C)C(OC2CC(C)(OC)C(OC(=O)c3ccccc3)C(C)O2)C(C)C(OC2OC(C)CC(N(C)C)C2OC(=O)c2ccccc2)C2(C)CC(C)=C(O2)C1C (centres unmarked) [Compound 770, 2′,4″,13-Tri-O-benzoyl-8,9-Anhydro-pseudoerythromycin A 6,9-hemiketal] | 11 | D (Growth of test organism was inhibited 35% or more and 55% or less.) | 14 | C (Growth of test organism was inhibited 55% or more and 75% or less.) | 13 | C (Growth of test organism was inhibited 55% or more and 75% or less.) | 13 | A (Growth of test organism was inhibited 95% or more.) | 11 | E (Growth of test organism was inhibited 35% or less.) | 11 | E (Growth of test organism was inhibited 35% or less.) | 18 | E (Growth of test organism was inhibited 35% or less.) | 12 | E (Growth of test organism was inhibited 35% or less.) | – | – | – | – | Inhibition activity (inhibition ring mm) C. albicans ATCC 64548 GYF ([1]; 100 μg/8 mm disk): 11 mm; Transparency of the inhibition ring C. albicans ATCC 64548 GYF ([1]; 100 μg/8 mm disk): D (Growth of test organism was inhibited 35% or more and 55% or less.)
CCC(OC(C)=O)C(C)(O)C1OC(=O)C(C)C(OC2CC(C)(OC)C(OC(C)=O)C(C)O2)C(C)C(OC2OC(C)CC(N(C)C)C2O)C2(C)CC(C)=C(O2)C1C (centres unmarked) [Compound 755, 4″,13-Di-O-acetyl-8,9-Anhydro-pseudo erythromycin A 6,9-hemiketal] | – | – | – | – | – | – | – | – | – | – | – | – | – | – | 16 | E (Growth of test organism was inhibited 35% or less.) | 17 | D (Growth of test organism was inhibited 35% or more and 55% or less.) | 10 | E (Growth of test organism was inhibited 35% or less.) | –
CCC(OC(C)=O)C(C)(O)C1OC(=O)C(C)C(OC2CC(C)(OC)C(OC(C)=O)C(C)O2)C(C)C(OC2OC(C)CC(NC)C2O)C2(C)CC(C)=C(O2)C1C (centres unmarked) [Compound 756, 4″,13-Di-O-acetyl-de (3′-N-methyl)-8,9-Anhydro-pseudoerythromycin A 6,9-hemiketal] | – | – | – | – | – | – | – | – | – | – | 10 | E (Growth of test organism was inhibited 35% or less.) | 14 | E (Growth of test organism was inhibited 35% or less.) | 14 | E (Growth of test organism was inhibited 35% or less.) | 15 | D (Growth of test organism was inhibited 35% or more and 55% or less.) | 10 | E (Growth of test organism was inhibited 35% or less.) | –

— patent US20050176655A1, “Novel macrolide derivatives havaing effect of potentiating antifungal activity” (priority 2002, published 2005)
